Common to all, as to test: DTP human tumour cell line panel, 48 h
Assay [1] has as its system SNB-19 CNS.
For assay [2], the system named is HCT-15 colon.
Assay [3] concerns MDA-MB-231 breast.
Assay [4] concerns BT-549 breast.
For assay [5], the system named is MOLT-4 leukemia.
Assay [6] deals with OVCAR-3 ovarian.
For assay [7], the system named is HCC-2998 colon.
Assay [8] deals with SNB-78 CNS.

Among the data in PubChem BioAssay (NCI) are GI50 and TGI values, retold here.

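Exposure lasted 48 hours, with cells grown in 96-well plates and compounds tested at five concentrations. GI50 = concentration required for 50% inhibition of growth. TGI is the concentration that stops growth completely.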

In the case of `CN(C)CCN=c1nc2c(c(N)n1-c1ccccc1)c(=S)n(-c1ccccc1)c(=S)n2-c1ccccc1`, the GI50 (usually the concentration that inhibits growth by half) is 3.86 µM in assay [1]; 1.17 µM in assay [2]; 1.16 µM in assay [3]; 3.21 µM in assay [4]; 2.79 µM in assay [5]; 2.89 µM in assay [6]. The GI50 in assay [7] was 2.05 µM. Besides, the TGI (commonly the concentration at which net growth stops) is 16.7 µM in assay [1]; 3.73 µM in assay [2]; 4.05 µM in assay [3]; 13.3 µM in assay [4]; over 21.6 µM in assay [5]; 11.6 µM in assay [6]. For the same compound, the concentration for total growth inhibition (TGI) in assay [7] was found to be 5.33 µM.

Take `CC(C)(O)c1cc(Nc2cc(Oc3cn(C4CC4)nc3C3CCOCC3)ccn2)ccn1`: the GI50 was over 100 µM in assay [1]; over 100 µM in assay [2]; 65 µM in assay [3]; 56.7 µM in assay [4]; 91.7 µM in assay [5]; 98.1 µM in assay [6]. In addition, the GI50 in assay [7] is over 100 µM. Besides, the total growth inhibition concentration (TGI) in assay [1], in assay [2], in assay [3], in assay [4], in assay [5] and in assay [6] was over 100 µM in each case. This compound displayed a TGI in assay [7] of over 100 µM.

As to `CC(=O)c1nc(-c2ccc(C[C@@H](CNC(=O)CN(C)C)NC(=O)c3ccc(OC(C)C)c(Cl)c3)cc2)cn1C`, the GI50 in assay [1] was 0.0439 µM; in assay [2] it was 0.0899 µM; in assay [3], 0.0535 µM; in assay [4], 0.285 µM; in assay [5] it was 0.0406 µM; in assay [6] it was 0.0332 µM. The GI50 in assay [7] was 0.134 µM. The concentration for total growth inhibition (TGI) was found to be 17.7 µM in assay [1]; 19.3 µM in assay [2]; 8.75 µM in assay [3]; 19.5 µM in assay [4]; 15 µM in assay [5]; 13.3 µM in assay [6]. In assay [7], this compound gave a concentration for total growth inhibition (TGI) of 21.8 µM.

On to `S=C(Nc1ccc(-c2nc3ccccc3s2)cc1)Nc1ccc(-c2nc3ccccc3s2)cc1`, for which the GI50 in assay [1] was 43 µM; in assay [2] it was 15.4 µM; in assay [3], 13.7 µM; in assay [4], 9.36 µM; in assay [5], 10.2 µM; in assay [6], 24.5 µM. Further, the GI50 in assay [7] is 17.4 µM. The TGI in assay [1] was over 100 µM; in assay [2], 35.7 µM; in assay [3], 35 µM; in assay [4], 40.1 µM; in assay [5] it was over 100 µM; in assay [6] it was over 100 µM. The same compound displayed a total growth inhibition concentration (TGI) in assay [7] of 31.2 µM.

For `CC(C)(C)OC(=O)NCCCCCCCCCCCCn1c2c(c3ccccc3c1=O)C(=O)c1ccccc1-2`, the GI50 is 32 µM in assay [1]; over 100 µM in assay [2]; 21 µM in assay [3]; 38.5 µM in assay [4]; 49.4 µM in assay [5]; over 100 µM in assay [6]. Besides, in assay [7], the GI50 is over 100 µM. Further, the concentration for total growth inhibition (TGI) in assay [1] was 83.5 µM; in assay [2], over 100 µM; in assay [3], 58.9 µM; in assay [4], over 100 µM; in assay [5], over 100 µM; in assay [6], over 100 µM. In assay [7], this compound showed a concentration for total growth inhibition (TGI) of over 100 µM.

As for `C=C1C(=O)O[C@@H]2C[C@@H](C)[C@@H]3C=CC(=O)[C@@]3(C)[C@@H](OC(=O)CCCC(=O)O[C@H]3[C@@H]4C(=C)C(=O)O[C@@H]4C[C@@H](C)[C@@H]4C=CC(=O)[C@]43C)[C@H]12`, the concentration for total growth inhibition (TGI) in assay [1] is 2.56 µM; in assay [2], 0.112 µM; in assay [3] it was 0.079 µM; in assay [4], 0.07 µM; in assay [5], 0.0634 µM; in assay [6] it was 0.275 µM. The compound further yielded a TGI in assay [7] of 1.27 µM.

Consider `CCOC(=O)c1sc(NC(=O)COc2ccc(/C=C3\CCc4cc(OC)ccc4C3=O)cc2)nc1C`, for which the GI50 was 12.2 µM in assay [1]; 7.96 µM in assay [2]; 13.1 µM in assay [3]; 1.4 µM in assay [4]; 1.76 µM in assay [5]; 11 µM in assay [6]. Moreover, in assay [7], the GI50 is 1.47 µM. The TGI in assay [1] came to 25.1 µM; in assay [2], 21.1 µM; in assay [3], 31.8 µM; in assay [4], 17.7 µM; in assay [5], 15.3 µM; in assay [6] it was 25.8 µM. In assay [7], this compound registered a TGI of 4.38 µM.

As for `COc1cccc(C=NC23CC4CC(CC(C4)C2)C3)c1`, the TGI in assay [1], in assay [2], in assay [8], in assay [5], in assay [6] and in assay [7] was over 100 µM each time.

As for `CCOC(=O)/C=C/c1ccc([N+](=O)[O-])o1`, the GI50 is 29 µM in assay [1]; 2.03 µM in assay [2]; 3.51 µM in assay [3]; 3.43 µM in assay [4]; 2.76 µM in assay [5]; 3.13 µM in assay [6]. Further, the GI50 in assay [7] is 11.2 µM. Besides, the TGI in assay [1] was over 100 µM; in assay [2], 7.53 µM; in assay [3] it was 11.6 µM; in assay [4], 11.4 µM; in assay [5] it was 13 µM; in assay [6] it was 9.21 µM. The compound further returned a TGI in assay [7] of 24.2 µM.

As to `CCCCC[C@H]1C/C=C2/C(=O)C=C[C@@H]2C/C=C\CCCC(=O)O1`, the GI50 was 0.479 µM in assay [1]; 0.0937 µM in assay [2]; 0.212 µM in assay [3]; 0.147 µM in assay [4]; 0.143 µM in assay [5]; 0.182 µM in assay [6]. In assay [7], the concentration for 50% growth inhibition (GI50) was 0.096 µM. Further, the TGI in assay [1] was 7.45 µM; in assay [2] it was 0.26 µM; in assay [3], 6.39 µM; in assay [4], 0.468 µM; in assay [5], 1.06 µM; in assay [6], 0.664 µM. Moreover, in assay [7], the TGI came to 0.179 µM.

As for `COc1ccc(/C=C(\C#N)c2cc(OC)c(OC)c(OC)c2)cc1`, the GI50 in assay [1] is 0.0558 µM; in assay [2] it was 0.0359 µM; in assay [3], 0.0483 µM; in assay [4], 0.0282 µM; in assay [5] it was 0.0391 µM; in assay [6], under 0.014 µM. The GI50 in assay [7] was 0.0283 µM. Besides, the TGI was over 100 µM in assay [1]; over 100 µM in assay [2]; over 100 µM in assay [3]; 0.0883 µM in assay [4]; 6.85 µM in assay [5]; 0.0322 µM in assay [6]. Moreover, the TGI in assay [7] is 1.25 µM.
